In US7265152B2 (ViroPharma Incorporated, priority 2002, dated 2007):
Read-outs that look alike come from different tables or passages of the source.

Assays:
HCV NS5B = target: T1, HCV NS5B (Hepatitis C virus genotype 1b, UniProt Q9WMX2); assay: Inhibition of viral RNA-dependent RNA polymerase (RdRp), in vitro biochemical assay; parameters: species or system HCV genotype 1b virus (BB7); settings: read-out: HCV pol-BB7 IC50
T1 construct: fusion protein, of which the carboxyl terminal 21 amino acids were removed to enhance its solubility; His tag (GSHHHHHH); made in house; host or cells: E. coli
How it was run: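 Purified recombinant NS5B from a genotype 1b consensus (BB7), His-tagged, E. coli-expressed, with the C-terminal 21 residues deleted. Inhibition of RdRp activity in vitro was measured, and IC50 is the concentration giving 50% inhibition.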

[1] = test system: HCV replicon (BB7 sequence) in Huh-7-Clone A cells; assay: HCV replicon assay: ELISA of NS5A protein in replicon-containing cells (Inhibition of Viral RNA Replication); type: cell-based; settings: Hepatitis C virus, read-out: Replicon
How it was run: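 Huh-7-Clone A cells carrying subgenomic BB7 HCV replicon (G418-selectable) incubated 72 h with compound. NS5A protein quantified by cell ELISA: glutaraldehyde fixation, anti-NS5A monoclonal plus HRP secondary, TMB read at OD 650 nm. EC50 derived from 8-point serial dilution dose curve.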

[2] = purified His-tagged NS5B (BB7), carboxyl terminal 21 amino acids removed
[3] = Huh-7-Clone A, NS5A ELISA, 72-hour incubation, ranges of EC50
[4] = ranges of EC50 in HCV replicon assay

| SMILES | IC50 (HCV NS5B; [2]) | EC50 [1, 3] | IC50 (HCV NS5B; HCV NS5B RdRp, BB7 genotype 1b) | EC50 [1, 4] |
| --- | --- | --- | --- | --- |
| CNC(=O)c1c(-c2ccc(F)c(C)c2)oc2ccc(OC)cc12 [Example 71, 2-(4-Fluoro-3-methyl-phenyl)-5-methoxy-benzofuran-3-carboxylic acid methylamide] | ≤ 0.5 µM | < 30 µM |  |  |
| CNC(=O)c1c(-c2ccc(F)cc2)oc2ccc(Cl)cc12 [Example 73, 5-Chloro-2-(4-fluoro-phenyl)-benzofuran-3-carboxylic acid methylamide] | 0.5 to 5 µM | < 10 µM |  |  |
| CNC(=O)c1c(-c2ccccc2)oc2ccc(C(C)(C)C)cc12 [Example 74, 5-tert-Butyl-2-phenyl-benzofuran-3-carboxylic acid methylamide] | ≤ 0.5 µM | < 10 µM |  |  |
| CNC(=O)c1c(-c2ccc(C)cc2)oc2ccc(Cl)cc12 [Example 75, 5-Chloro-2-p-tolyl-benzofuran-3-carboxylic acid methylamide] | ≤ 0.5 µM | < 10 µM |  |  |
| CNC(=O)c1c(-c2ccc(F)c(Cl)c2)oc2ccc(OC)cc12 [Example 76, 2-(3-Chloro-4-fluoro-phenyl)-5-methoxy-benzofuran-3-carboxylic acid methylamide] | 0.5 to 5 µM | < 10 µM |  |  |
| CNC(=O)c1c(-c2ccc(Cl)c(F)c2)oc2ccc(OC)cc12 [Example 77, 2-(4-Chloro-3-fluoro-phenyl)-5-methoxy-benzofuran-3-carboxylic acid methylamide] | ≤ 0.5 µM | < 10 µM |  |  |
| CNC(=O)c1c(-c2ccccc2)oc2ccc(COC)cc12 [Example 78, 5-Methoxymethyl-2-phenyl-benzofuran-3-carboxylic acid methylamide] | 0.5 to 5 µM | < 30 µM |  |  |
| CNC(=O)c1c(-c2ccc(F)cc2)oc2cc(C)c(OC(C)C)cc12 [Example 79, 2-(4-Fluoro-phenyl)-5-isopropoxy-6-methyl-benzofuran-3-carboxylic acid methylamide] | ≤ 0.5 µM | < 10 µM |  |  |
| CNC(=O)c1c(-c2ccc(F)cc2)oc2c(C)cc(OC(C)C)cc12 [Example 80, 2-(4-Fluoro-phenyl)-5-isopropoxy-7-methyl-benzufuran-3-carboxylic acid methylamide] | 0.5 to 5 µM | < 30 µM |  |  |
| CNC(=O)c1c(-c2ccc(F)cc2)oc2cc(C)c(OC)cc12 [Example 81, 2-(4-Fluoro-phenyl)-5-methoxy-6-methyl-benzofuran-3-carboxylic acid methylamide] | ≤ 0.5 µM | < 10 µM |  |  |
| CNC(=O)c1c(-c2ccc(F)cc2)oc2ccc(F)cc12 [Example 82, 5-Fluoro-2-(4-fluoro-phenyl)-benzofuran-3-carboxylic acid methylamide] | 0.5 to 5 µM | < 30 µM |  |  |
| CCc1ccc(-c2oc3ccc(F)cc3c2C(=O)NC)cc1 [Example 83, 2-(4-Ethyl-phenyl)-5-fluoro-benzofuran-3-carboxylic acid methylamide] | ≤ 0.5 µM | < 10 µM |  |  |
| CCc1ccc2oc(-c3ccccc3)c(C(=O)NC)c2c1 [Example 84, 5-Ethyl-2-phenyl-benzofuran-3-carboxylic acid methylamide] | 0.5 to 5 µM | < 30 µM |  |  |
| CNC(=O)c1c(-c2ccc(Cl)s2)oc2ccc(OC)cc12 [Example 85, 2-(5-Chloro-thiophen-2-yl)-5-methoxy-benzofuran-3-carboxylic acid methylamide] | ≤ 0.5 µM | < 10 µM |  |  |
| CNC(=O)c1c(-c2ccccc2)oc2ccc(C(C)C)cc12 [Example 86, 5-Isopropyl-2-phenyl-benzofuran-3-carboxylic acid methylamide] | ≤ 0.5 µM | < 10 µM |  |  |
| CCOc1ccc2oc(-c3ccc(Cl)s3)c(C(=O)NC)c2c1 [Example 87, 2-(5-Chloro-thiophen-2-yl)-5-ethoxy-benzofuran-3-carboxylic acid methylamide] | ≤ 0.5 µM | < 10 µM |  |  |
| CNC(=O)c1c(-c2cccs2)oc2ccc(OC)cc12 [Example 88, 5-Methoxy-2-thiophen-2-yl-benzofuran-3-carboxylic acid methylamide] | 0.5 to 5 µM | < 30 µM |  |  |
| CNC(=O)c1c(-c2cccnc2)oc2ccc(Cl)cc12 [Example 89, 5-Chloro-2-pyridin-3-yl-benzofuran-3-carboxylic acid methylamide] | 0.5 to 5 µM | > 30 µM |  |  |
| CNC(=O)c1c(-c2ccc(Br)c(F)c2)oc2ccc(OC(C)C)cc12 [Example 90, 2-(4-Bromo-3-fluoro-phenyl)-5-isopropoxy-benzofuran-3-carboxylic acid methylamide] |  |  | ≤ 0.5 µM | < 10 µM |
| CNC(=O)c1c(-c2ccc(F)cc2)oc2cc(Br)c(OC(C)C)cc12 [Example 92, 6-Bromo-2-(4-fluoro-phenyl)-5-isopropoxy-benzofuran-3-carboxylic acid methylamide] |  |  | ≤ 0.5 µM | < 1 µM |
| CNC(=O)c1c(-c2ccc(N3CCOCC3)cc2)oc2ccc(OC)cc12 [Example 93, 5-Methoxy-2-(4-morpholin-4-yl-phenyl)-benzofuran-3-carboxylic acid methylamide] |  |  | 0.5 to 5 µM | > 30 µM |
| CNC(=O)c1c(-c2ccccc2)oc2cc(OC)c(OC)cc12 [Example 94, 5,6-Dimethoxy-2-phenyl-benzofuran-3-carboxylic acid methylamide] |  |  | ≤ 0.5 µM | < 1 µM |
| CNC(=O)c1c(-c2ccc(N3CCCC3)cc2)oc2ccc(OC(C)C)cc12 [Example 95, 5-Isopropoxy-2-(4-pyrrolidin-1-yl-phenyl)-benzofuran-3-carboxylic acid methylamide] |  |  | 5 to 30 µM | < 30 µM |
| CNC(=O)c1c(-c2ccncc2)oc2ccc(F)cc12 [Example 96, 5-Fluoro-2-pyridin-4-yl-benzofuran-3-carboxylic acid methylamide] |  |  | 0.5 to 5 µM | > 30 µM |
| CNC(=O)c1c(-c2ccc(F)cc2)oc2cc(C)c(OC(C)C(=O)O)cc12 (stereo not drawn) [Example 97, 2-[2-(4-Fluoro-phenyl)-6-methyl-3-methylcarbamoyl-benzofuran-5-yloxy]-propionic acid] |  |  | 5 to 30 µM | > 30 µM |
| CNC(=O)c1c(-c2ccc(F)cc2)oc2cc(NC(C)=O)c(OC(C)C)cc12 [Example 98, 6-Acetylamino-2-(4-fluoro-phenyl)-5-isopropoxy-benzofuran-3-carboxylic acid methylamide] |  |  | ≤ 0.5 µM | < 10 µM |
| CNC(=O)c1c(-c2ccc(N)cc2)oc2ccc(OC(C)C)cc12 [Example 99, 2-(4-Amino-phenyl)-5-isopropoxy-benzofuran-3-carboxylic acid methylamide] |  |  | 0.5 to 5 µM | < 30 µM |
| CNC(=O)c1c(-c2ccc(F)cc2)oc2cc(NCCN3CCOCC3)c(OC(C)C)cc12 [Example 100, 2-(4-Fluoro-phenyl)-5-isopropoxy-6-(2-morpholin-4-yl-ethylamino)-benzofuran-3-carboxylic acid methylamide] |  |  | 0.5 to 5 µM | < 30 µM |
| CNC(=O)c1c(-c2ccc(F)cc2)oc2cc(N3CCCCC3)c(OC(C)C)cc12 [Example 101, 2-(4-Fluoro-phenyl)-5-isopropoxy-6-piperidin-1-yl-benzofuran-3-carboxylic acid methylamide] |  |  | ≤ 0.5 µM | < 1 µM |
| CNC(=O)c1c(-c2ccc(F)cc2)oc2cc(OC)c(OC)cc12 [Example 102, 2-(4-Fluoro-phenyl)-5,6-dimethoxy-benzofuran-3-carboxylic acid methylamide] |  |  | ≤ 0.5 µM | < 1 µM |
